Measured values published in patent publication US12016834B2, “Small molecule inhibitors of SLC25A1” (GEORGETOWN UNIVERSITY, priority 2017, dated 2024).

Experiments:
[1] = test system: H1299 cells; experiment: Sphere forming / self-renewal assay; assay type: cell-based, human; settings: one week after treatment; BTA 2 mM, CTPI 1 mM (FIG. 9F)
Experimental: Growth of monolayers and sphere cultures. Tumor cell lines were grown as monolayers in complete Dulbecco's Modified Eagle's Media (DMEM, Gibco; supplemented with 10% fetal bovine serum and 1% of 5,000 units/mL of penicillin-streptomycin (pen-strep), Gibco). To generate spheroids, cells were grown in Falcon bacteriological petri dishes coated with 2% poly(2-hydroxyethyl methacrylate) dissolved in 100% ethanol. The growth media was DMEM/F12 (Gibco) supplemented with 20 ng/mL of epidermal growth factor (EGF), 5 ng/mL of fibroblast growth factor, 0.375% 100× N2 supplements (Gibco), and 1% pen-strep. Monolayer cells were dissociated using 0.25% trypsin-edta (Gibco), whereas spheroid cultures were dissociated using StemPro Accutase (Gibco). Patient derived cell lines were grown as described below in the primary lung cultures section.
Self-renewal assays. Tumor cells cultured as spheroids were dissociated and diluted in 2× sphere media containing 1% methyl cellulose, which was previously dissolved in cold DMEM/F12 media. Either 200, 500, or 1000 cells were then plated in each 96 well and were incubated in the presence or absence of drugs, as indicated. The spheres were allowed to form for a period of a week to ten days, at which point they were counted. Six biological replicates were used for quantification of the results.

[2] = molecular target: SLC25A1 (Homo sapiens, UniProt P53007); settings: cited from earlier work
SLC25A1, sequence (P53007 14-311, species assumed): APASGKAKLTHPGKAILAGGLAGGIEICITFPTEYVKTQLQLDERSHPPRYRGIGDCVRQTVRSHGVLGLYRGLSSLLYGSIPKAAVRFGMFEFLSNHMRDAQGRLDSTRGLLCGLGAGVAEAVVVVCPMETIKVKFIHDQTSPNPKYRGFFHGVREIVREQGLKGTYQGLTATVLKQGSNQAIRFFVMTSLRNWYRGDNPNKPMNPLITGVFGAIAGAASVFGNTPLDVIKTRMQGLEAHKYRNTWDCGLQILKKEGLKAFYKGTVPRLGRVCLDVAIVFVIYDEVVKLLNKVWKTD

**Q.** For `O=C(O)c1cccc(C(=O)O)c1C(=O)O` [BTA, 1,2,3, Benzenetricarboxylic acid], which sphere forming capacity [1] is on record?
**A.** reduced sphere forming capacity

**Q.** And the “concentration required for inhibition of SLC25A1” value [2]?
**A.** millimolar concentration
